In US11964973B2 (priority 2019, dated 2024) one finds EC50 and IC50 data, which are given here for 25 compounds.

Molecules are shown by their SMILES. Where two headings read alike, the source gives them in different places.

Assay [1] deals with human venous whole blood, CD8 positive population (pERK). Put plainly: DGK human whole blood pERK assay. The assay is classed as cell-based. Here is the method: Assay 11: DGK Human Whole Blood pERK Assay
Human whole blood ERK phosphorylation assay was performed with human venous whole blood obtained from healthy donors (drawn with Heparin as anti-coagulant). […] Heparinized human whole blood was added to the compound plate at 9 μL per well and incubated for one hour at 37° C. in a humidified 95%, air/5% CO2 incubator. After one hour of compound incubation, 1 μL of human anti-CD3 antibody (in-house) in the presence of cross-linking antibody goat anti-mouse IgG (4 μg/mL) was added to the well at 1 μg/mL final concentration for stimulation of pathway and additionally incubated for 15 minutes at 37° C. […] Samples analyzed using the Intellicyt® iQue Screener PLUS. The pERK activation was quantitated by the percentage of pERK positive population within CD8 positive population.

The next assay has as its target human DGKζ (Homo sapiens (Human), UniProt Q13574). As to the kind of experiment: biochemical. The assay is classed as biochemical. The conditions noted are these: liposome (LIPGLO) assay.
Assay [2] relates to Human venous whole blood (IFN-γ). As to the kind of experiment: Human whole blood IFN-γ assay. The format is cell-based. Here is the method:
Assay 10: Human Whole Blood IFN-γ Assay
Human venous whole blood (22.5 μL per well), obtained from healthy donors, was pre-treated with compounds for one hour at 37° C. in a humidified 95% air/5% CO2 incubator. The blood was stimulated with 2.5 μL anti-human CD3 and anti-CD28 mAb at a final concentration of 1 μg/mL each for 24 hours at 37° C. IFN-γ in the supernatants was measured using AlphLISA kit (Cat #AL217).

Where [3] appears, read: human whole blood pERK, read-out: DGK HWB.
Where [4] appears, read: Homo sapiens, CD8 positive, read-out: DGK HWB, human whole blood pERK.
Where [5] appears, read: read-out: DGK HWB, human whole blood pERK.
Setting [6] is: Homo sapiens, CD8 positive, human whole blood pERK, read-out: DGK HWB.
[7] abbreviates: Homo sapiens, human whole blood IFN-γ, read-out: INFg Whole Blood.
Where [8] appears, read: human whole blood IFN-γ, read-out: INFg Whole Blood.

Chain of human DGKζ (Q13574 whole entry, looked up): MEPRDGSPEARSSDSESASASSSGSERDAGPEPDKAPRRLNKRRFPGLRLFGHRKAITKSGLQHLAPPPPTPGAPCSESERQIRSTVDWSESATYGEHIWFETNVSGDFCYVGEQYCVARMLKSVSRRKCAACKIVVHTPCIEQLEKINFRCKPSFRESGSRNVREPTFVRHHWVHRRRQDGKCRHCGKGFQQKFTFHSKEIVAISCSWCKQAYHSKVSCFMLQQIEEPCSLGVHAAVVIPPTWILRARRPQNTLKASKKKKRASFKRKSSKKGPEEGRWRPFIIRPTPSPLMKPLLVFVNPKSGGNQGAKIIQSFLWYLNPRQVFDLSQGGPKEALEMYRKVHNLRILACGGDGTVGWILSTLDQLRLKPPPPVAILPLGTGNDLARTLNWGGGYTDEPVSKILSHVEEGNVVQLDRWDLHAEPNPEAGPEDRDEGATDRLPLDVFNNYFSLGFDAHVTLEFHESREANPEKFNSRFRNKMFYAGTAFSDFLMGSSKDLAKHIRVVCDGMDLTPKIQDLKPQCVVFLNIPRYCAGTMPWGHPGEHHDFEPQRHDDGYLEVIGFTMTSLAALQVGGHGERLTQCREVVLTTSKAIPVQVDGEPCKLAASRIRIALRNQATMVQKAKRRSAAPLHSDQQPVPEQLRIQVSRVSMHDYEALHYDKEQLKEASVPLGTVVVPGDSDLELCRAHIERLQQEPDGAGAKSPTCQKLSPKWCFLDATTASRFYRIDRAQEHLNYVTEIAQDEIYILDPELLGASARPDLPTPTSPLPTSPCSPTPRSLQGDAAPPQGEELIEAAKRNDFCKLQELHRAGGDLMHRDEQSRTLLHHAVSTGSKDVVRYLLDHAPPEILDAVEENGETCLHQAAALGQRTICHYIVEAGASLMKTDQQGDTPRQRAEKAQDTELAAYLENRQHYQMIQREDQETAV

As for `CCO[C@H]1CN(c2cc(=O)n(C)c3ccc(C#N)nc23)CC[C@@H]1Oc1ccc2oc(C)nc2c1` [Example 355, 8-((3S,4S)-3-ethoxy-4-((2-methylbenzo[d]oxazol-5-yl)oxy)piperidin-1-yl)-5-methyl-6-oxo-5,6-dihydro-1,5-naphthyridine-2-carbonitrile], the EC50 in assay [1] (setting [3]) was 20 µM.
As for `CC[C@@H]1CN(c2cc(=O)n(C)c3ccc(C#N)nc23)[C@H](C)C[C@H]1Oc1ccc(OC(C)C)cn1` [Example 297, 8-((2R,4R,5R)-5-ethyl-4-((5-isopropoxypyridin-2-yl)oxy)-2-methylpiperidin-1-yl)-5-methyl-6-oxo-5,6-dihydro-1,5-naphthyridine-2-carbonitrile], in assay [1] (setting [4]), the EC50 amounted to 0.68 µM.
The same measure, in the same setting: as for `C[C@@H]1CC(Oc2cccc(C(F)(F)F)c2)[C@@H](C)CN1c1nc(=O)n(C)c2ccc(C#N)nc12` (stereo in doubt) [Example 251, 4-((2R,5S)-2,5-dimethyl-4-(3-(trifluoromethyl)phenoxy)piperidin-1-yl)-1-methyl-2-oxo-1,2-dihydropyrido[3,2-d]pyrimidine-6-carbonitrile], the figure is 1.8 µM.
Consider `CCO[C@H]1CN(c2cc(=O)n(C)c3ccc(C#N)nc23)CC[C@@H]1Oc1ccc(Cl)c(F)c1` [Example 357, 8-((3S,4S)-4-(4-chloro-3-fluorophenoxy)-3-ethoxypiperidin-1-yl)-5-methyl-6-oxo-5,6-dihydro-1,5-naphthyridine-2-carbonitrile], for which the EC50 in assay [1] (setting [5]) came to 20 µM.
On the same count and under the same terms, under `C[C@H]1CN(c2cc(=O)n(C)c3ccc(C#N)nc23)[C@@H](C)CC1N(C)Cc1ccc(F)cc1` (single isomer, unassigned) [Example 334] stands 20 µM.
In the case of `C[C@@H]1CN(c2nc(=O)n(C)c3ccc(C#N)nc23)[C@H](C)CC1Oc1cccc(C(F)(F)F)c1` (stereo partly drawn) [Example 257, 4-((2R,5R)-2,5-dimethyl-4-(3-(trifluoromethyl)phenoxy)piperidin-1-yl)-1-methyl-2-oxo-1,2-dihydropyrido[3,2-d]pyrimidine-6-carbonitrile], the EC50 in assay [1] (setting [5]) is 0.8 µM.
With `CC[C@@H]1CN(c2nc(=O)n(C)c3ccc(Cl)nc23)[C@@H](C)C[C@H]1Oc1ccc(OC(C)C)cn1` [Example 300, 6-chloro-4-((2S,4R,5R)-5-ethyl-4-((5-isopropoxypyridin-2-yl)oxy)-2-methylpiperidin-1-yl)-1-methylpyrido[3,2-d]pyrimidin-2(1H)-one], the EC50 in assay [1] (setting [4]) stood at 8.3 µM.
In the case of `CCO[C@H]1CN(c2cc(=O)n(C)c3ccc(C#N)nc23)CC[C@@H]1Oc1ccc2oc(C)nc2c1` [Example 356, 8-((3S,4S)-3-ethoxy-4-((2-methylbenzo[d]oxazol-5-yl)oxy)piperidin-1-yl)-5-methyl-6-oxo-5,6-dihydro-1,5-naphthyridine-2-carbonitrile], in assay [1] (setting [3]), the EC50 is 3.9 µM.
Take `CCO[C@H]1CN(c2cc(=O)n(C)c3ccc(C#N)nc23)CC[C@@H]1Oc1ccnc(C(F)(F)F)c1` [Example 359, 8-((3S,4S)-3-ethoxy-4-((2-(trifluoromethyl)pyridin-4-yl)oxy)piperidin-1-yl)-5-methyl-6-oxo-5,6-dihydro-1,5-naphthyridine-2-carbonitrile]: the EC50 in assay [1] (setting [5]) turned out to be 20 µM.
Regarding `CC[C@@H]1CN(c2cc(=O)n(C)c3ccc(C#N)nc23)[C@H](C)C[C@@H]1Oc1cccc(C(F)(F)F)c1` [Example 309, 8-((2R,4S,5R)-5-ethyl-2-methyl-4-(3-(trifluoromethyl)phenoxy)piperidin-1-yl)-5-methyl-6-oxo-5,6-dihydro-1,5-naphthyridine-2-carbonitrile], the EC50 in assay [1] (setting [6]) worked out at 4 µM.
On to `CC1CN(c2c(C#N)c(=O)n(C)c3ccc(C#N)nc23)CCC1N(C)C(=O)c1ccc(C(F)(F)F)cc1` (single isomer, unassigned) [Example 292, N-(1-(3,6-dicyano-1-methyl-2-oxo-1,2-dihydro-1,5-naphthyridin-4-yl)-3-methylpiperidin-4-yl)-N-methyl-4-(trifluoromethyl)benzamide], for which the EC50 in assay [1] (setting [4]) was determined as 20 µM.
As to `Cc1ccc(O[C@@H]2C[C@H](C)N(c3cc(=O)n(C)c4ccc(C#N)nc34)C[C@@H]2C)cc1` [Example 312, 8-((2S,4R,5S)-2,5-dimethyl-4-(p-tolyloxy)piperidin-1-yl)-5-methyl-6-oxo-5,6-dihydro-1,5-naphthyridine-2-carbonitrile], in assay [1] (setting [6]), the EC50 was 6 µM.
Regarding `CC[C@@H]1CN(c2cc(=O)n(C)c3ccc(C#N)nc23)CC[C@@H]1Oc1ccc(OC(C)C)cn1` [Example 204, 8-((3R,4S)-3-ethyl-4-((5-isopropoxypyridin-2-yl)oxy)piperidin-1-yl)-5-methyl-6-oxo-5,6-dihydro-1,5-naphthyridine-2-carbonitrile], the IC50 on human DGKζ (Table A, read-out: DGKζ) is 0.33 µM.
On to `CCO[C@H]1CN(c2cc(=O)n(C)c3ccc(C#N)nc23)CC[C@@H]1Oc1cccc(C(F)(F)F)n1` (relative stereo) [Example 364, trans-8-(3-Ethoxy-4-((6-(trifluoromethyl)pyridin-2-yl)oxy)piperidin-1-yl)-5-methyl-6-oxo-5,6-dihydro-1,5-naphthyridine-2-carbonitrile], for which the EC50 in assay [1] (setting [3]) worked out at 20 µM.
Turning to `CCO[C@H]1CN(c2cc(=O)n(C)c3ccc(C#N)nc23)CC[C@@H]1Oc1ccc(C(F)(F)F)cc1` [Example 343, 8-((3S,4S)-3-ethoxy-4-(4-(trifluoromethyl)phenoxy)piperidin-1-yl)-5-methyl-6-oxo-5,6-dihydro-1,5-naphthyridine-2-carbonitrile], the EC50 in assay [1] (setting [3]) was determined as 0.32 µM.
Regarding `CCO[C@H]1CN(c2cc(=O)n(C)c3ccc(C#N)nc23)CC[C@@H]1Oc1cccc(OC(F)(F)F)c1` [Example 352, 8-((3S,4S)-3-ethoxy-4-(3-(trifluoromethoxy)phenoxy)piperidin-1-yl)-5-methyl-6-oxo-5,6-dihydro-1,5-naphthyridine-2-carbonitrile], the EC50 in assay [1] (setting [3]) is 12 µM.
In the case of `Cn1c(=O)nc(N2CC[C@@H](Oc3cccc(C(F)(F)F)c3)[C@H](O)C2)c2nc(C#N)ccc21` (single isomer, unassigned) [Example 273, (+/−)-trans-4-(3-hydroxy-4-(3-(trifluoromethyl)phenoxy)piperidin-1-yl)-1-methyl-2-oxo-1,2-dihydropyrido[3,2-d]pyrimidine-6-carbonitrile], on human DGKζ (Table A, read-out: DGKζ), the IC50 stood at 4.7 µM.
Turning to `CC[C@@H]1CN(c2cc(=O)n(C)c3ccc(C#N)nc23)CC[C@H]1Oc1ccc(OC(C)C)cc1` [Example 161, 8-((3R,4R)-3-ethyl-4-(4-isopropoxyphenoxy)piperidin-1-yl)-5-methyl-6-oxo-5,6-dihydro-1,5-naphthyridine-2-carbonitrile], the EC50 in assay [2] (Homo sapiens, 24 h, human whole blood, anti-CD3 plus anti-CD28, 24 hours, read-out: INFg Whole Blood Normalized Agonist EC50) was determined as 2.4 µM. In addition, the IC50 at human DGKζ (read-out: DGKζ LIPGLO IC50) worked out at 0.54 µM.
For `CC[C@@H]1CN(c2cc(=O)n(C)c3ccc(C#N)nc23)CC[C@H]1Oc1ccc(OC(C)C)cn1` [Example 192, 8-((3R,4R)-3-ethyl-4-((5-isopropoxypyridin-2-yl)oxy)piperidin-1-yl)-5-methyl-6-oxo-5,6-dihydro-1,5-naphthyridine-2-carbonitrile], in assay [2] (setting [7]), the EC50 is 0.29 µM. The IC50 at human DGKζ (Table A, read-out: DGKζ) was found to be 0.42 µM.
Take `CC[C@@H]1CN(c2cc(=O)n(C)c3ccc(C#N)nc23)CC[C@@H]1Oc1ccc(OC(C)C)cn1` [Example 203, 8-((3R,4S)-3-ethyl-4-((5-isopropoxypyridin-2-yl)oxy)piperidin-1-yl)-5-methyl-6-oxo-5,6-dihydro-1,5-naphthyridine-2-carbonitrile]: at human DGKζ (Table A, read-out: DGKζ), the IC50 worked out at 0.23 µM.
On to `C[C@@H]1CN(c2cc(=O)n(C)c3ccc(C#N)nc23)CC[C@@H]1Oc1ncc(C(F)(F)F)cn1` [Example 222, 5-methyl-8-((3R,4S)-3-methyl-4-((5-(trifluoromethyl)pyrimidin-2-yl)oxy)piperidin-1-yl)-6-oxo-5,6-dihydro-1,5-naphthyridine-2-carbonitrile], for which, in assay [2] (setting [7]), the EC50 turned out to be 3.9 µM.
`CC[C@@H]1CN(c2cc(=O)n(C)c3ccc(C#N)nc23)CC[C@H]1Oc1cccc(C(C)(C)C)c1` [Example 196, 8-((3R,4R)-4-(3-(tert-butyl)phenoxy)-3-ethylpiperidin-1-yl)-5-methyl-6-oxo-5,6-dihydro-1,5-naphthyridine-2-carbonitrile]: the EC50 in assay [2] (Homo sapiens, read-out: INFg Whole Blood, human whole blood IFN-γ) came to 0.29 µM.
Turning to `C[C@@H]1CN(c2cc(=O)n(C)c3ccc(C#N)nc23)CC[C@@H]1Oc1ncccn1` [Example 217, 5-methyl-8-((3R,4S)-3-methyl-4-(pyrimidin-2-yloxy)piperidin-1-yl)-6-oxo-5,6-dihydro-1,5-naphthyridine-2-carbonitrile], the EC50 in assay [2] (setting [7]) was 20 µM.
On to `CC(C)c1ccnc(O[C@H]2CCN(c3cc(=O)n(C)c4ccc(C#N)nc34)C[C@H]2C)c1` (single isomer, unassigned) [Example 212], for which the EC50 in assay [2] (setting [8]) is 1.9 µM.
In the case of `CO[C@H]1CN(c2cc(=O)n(C)c3ccc(C#N)nc23)CC[C@@H]1Oc1ccc(OC(C)C)cn1` (racemic) [Example 270, (±)-trans-8-(4-((5-isopropoxypyridin-2-yl)oxy)-3-methoxypiperidin-1-yl)-5-methyl-6-oxo-5,6-dihydro-1,5-naphthyridine-2-carbonitrile], the EC50 in assay [2] (setting [8]) stood at 5.4 µM.
